In patent US11414454B2, “Compositions, methods, and systems for affinity-based protein identification and purification” (Auctus Biologies, Inc., priority 2017, dated 2022):
Several values for one entry are separate records, joined by “and”; a condition that tells them apart may be missing. Equal values may be shown once. Read-outs that look alike come from different tables or passages of the source.

Tests used:
[1] = target: RPtag (large); assay: Fluorescence anisotropy Kd of rhodamine labeled RPtag (small) peptides for RPtag (large); format: binding, Thermoanaerobacter tengcongensis; conditions: Example 6, 1 nM rhodamine labeled native RPtag (small)
Experimental: (§1) 50 nM of RP-Tag Small (see Sequence 3, below) with an N-terminal Rhodamine B label was incubated with increasing concentrations of either RP-Tag Large (see Sequence 2) or Bovine Serum Albumin (BSA) in 50 mM Tris pH 8.0, 150 mM NaCl, 10 mM 2-mercaptoethanol, and 0.005% Tween 20 for 5 min in black 96-well plates at room temperature.
(§2) Anisotropy was then measured, and a Kd calculated by fitting the data to the equation f=y0+(ymax−y0)*(Ptot+x+Kd−sqrt((Ptot+x+Kd)^2−4*Ptot*x))/(2*Ptot), where y0 is the baseline anisotropy, ymax is the maximum anisotropy, Ptot is the fixed concentration of labeled peptide used, x is the variable concentration of protein used, and Kd is the measured Kd.
(§3) The indicated concentrations of RPtag (large) and an anti-His tag antibody (4E3D10H2/E3 purchased from ThermoFisher Scientific) were incubated with 1 nM rhodamine labeled native RPtag (small) peptide and 6×His peptide (Rhodamine-GHHHHHH), respectively, and fluorescence anisotropy measured. BSA incubated with native rhodamine labeled RPtag(small) is included as a control for non-specific binding. Kd's were calculated according to the equation f=y0+(ymax−y0)*(Ptot+x+Kd−sqrt((Ptot+x+Kd)^2−4*Ptot*x))/(2*Ptot), where y0 is the baseline anisotropy, ymax is the maximum anisotropy, Ptot is the fixed concentration of labeled peptide used, x is the variable concentration of protein used, and Kd is the measured Kd. We measured a Kd of 0.2±0.1 nM for RPtag(large) binding RPtag(small), and a Kd of 6±1 nM for the antibody/6×His tag pair.
Regarding the studies shown in FIG. 14, increasing concentrations of unlabeled RPtag large with the indicated mutations (native, f137d, and f137e) were incubated for 1 h with 1 nM rhodamine labeled RPtag small peptide and the fluorescence anisotropy was measured. Resultant curves were fit with the equation f=y0+(ymax−y0)*(Ptot+x+Kd−sqrt((Ptot+x+Kd)^2−4*Ptot*x))/(2*Ptot), where y0 is the baseline anisotropy, ymax is the maximum anisotropy, Ptot is the fixed concentration of labeled peptide used, x is the variable concentration of protein used, and Kd is the measured Kd. Data are presented here as Ka=1/Kd. Log transformed Ka's were then compared by one-way ANOVA with Holm-Sidak post hoc correction. ***p<0.001, **p<0.01, *p<0.05. data are mean±SEM (n=3-4). Buffer was 50 mM Tris pH 8.0, 0.005% tween20. Proteins were expressed and purified by single step NiNTA chromatography as before. Peptides were synthesized solid-state and handled as previous.

[2] = system: RPtag (large); assay: Association/dissociation kinetics of RPtag (small) peptides with RPtag (large) by fluorescence anisotropy; format: binding, Thermoanaerobacter tengcongensis
Experimental: Panel a depicts representative association rate kinetics traces varying native RPtag small. Rhodamine labeled RPtag small at the indicated concentration was incubated with unlabeled RPtag large and the association measured by fluorescence anisotropy. L-S complex concentration was calculated by the equation (r−rmin)/(rmax−rmin)*[S] where r is the measured anisotropy, rmin is the anisotropy in the absence of any RPtag large, rmax is the anisotropy measured in the presence of at saturating RPtag large, and [S] is the total concentration of RPtag small used in the experiment. […] Dashed cyan lines are simulations of the mechanism shown in f using the rate constants detailed herein. The concentrations in the simulations were multiplied by a correction factor of 0.925, which is well within the 90% purity specification of the purchased peptide.
LS complex was performed by incubating 1000 nM RPtag large with the indicated concentrations of rhodamine labeled RPtag small. At the start of the experiment, 0.1 mM unlabeled native RPtag small was added and fluorescence anisotropy monitored. Data processing was done as in panel a, except the red fits were to the single exponential decay equation y=y0+A*exp(−b*t). As expected, the initial dissociation rates were linear with respect to the LS complex.
Fitting to a line yields a rate constant (koff)=0.0091 min^−1 (FIG. 9 panel e). In good agreement, when the kinetics are fit with a first order rate law, a rate constant of 0.012±0.002 min^−1 (n=15) was observed. […] Panel e is a graph of the initial rates of the traces represented in d. Slope of the fit line is 0.0091 min^−1. Data are mean±SE (n=3).
The library of mutant RPtag(small) peptides, described above, was next analyzed to measure off rates (koff). The on rate was also calculated from measured koff and Kd (S*-LS transition), except instead of using unlabeled native peptide as the competitor, we used unlabeled Nd2,P5A,E18A (the tightest binding RPtag(small) peptide identified). […] However, there were notable exceptions. […] This indicates, without wishing to be limited, that P5 may constrain the structure of the peptide. The increased flexibility imparted to the peptide by the P5A mutation may decrease the energy barrier required for binding/unbinding.

[3] = system: Bovine Serum Albumin (BSA); format: binding
Experimental: as §1, §2, §3

[4] = target: Bovine Serum Albumin (BSA) (Bos taurus, UniProt P02769); format: binding; conditions: fluorescence anisotropy, rhodamine labeled peptide, up to 10 μM BSA
Bovine Serum Albumin (BSA) (Bos taurus, UniProt P02769), sequence (P02769 25-607): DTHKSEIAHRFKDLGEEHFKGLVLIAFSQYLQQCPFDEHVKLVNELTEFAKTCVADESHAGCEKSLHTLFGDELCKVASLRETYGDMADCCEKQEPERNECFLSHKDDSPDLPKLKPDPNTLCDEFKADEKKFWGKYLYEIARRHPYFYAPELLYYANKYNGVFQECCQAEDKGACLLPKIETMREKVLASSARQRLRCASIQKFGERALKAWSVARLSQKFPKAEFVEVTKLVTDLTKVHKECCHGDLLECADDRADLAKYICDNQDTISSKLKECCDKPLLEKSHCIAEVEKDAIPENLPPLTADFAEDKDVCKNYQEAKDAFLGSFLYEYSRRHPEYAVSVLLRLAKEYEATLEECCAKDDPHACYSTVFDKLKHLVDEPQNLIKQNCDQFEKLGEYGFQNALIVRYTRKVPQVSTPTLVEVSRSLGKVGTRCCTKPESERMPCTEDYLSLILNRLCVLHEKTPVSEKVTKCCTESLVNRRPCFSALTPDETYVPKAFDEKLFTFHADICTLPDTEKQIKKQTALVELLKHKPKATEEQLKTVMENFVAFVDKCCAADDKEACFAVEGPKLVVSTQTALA
Experimental: as §1, §2, §3

[5] = system: RPtag(large); assay: pH profile of Kd by fluorescence anisotropy; format: binding, Thermoanaerobacter tengcongensis; conditions: buffers pH 1.5 to 13
Experimental: The Kds of Nd8,Cd4 for RPtag(large) was measured in the presence of buffers of different pHs ranging from 1.5 to 13.
For these experiments, Kds were measured by fluorescence anisotropy as described above in the following buffers, all at 100 mM with 0.005% Tween 20: glycine pH 1.5, glycine pH 2.0, glycine pH 3.0, acetate pH 4.5, 2-(N-morpholino)ethanesulfonic acid pH 6.0, tris pH 7.0, tris pH 7.5, tris pH 8.0, tris pH 8.5, borate pH 10.0, phosphate pH 11.5, phosphate pH 13.0.

[6] = target: RPtag (large); assay: Buffer additive screen, Kd by fluorescence anisotropy; format: binding, Thermoanaerobacter tengcongensis
Experimental: To determine reagent compatibility with the disclosed system, an additive screen was performed, wherein the Kd between RPtag (large) and 3 RPtag (small) peptides—native, Nd8Cd4, and Nd2p5ae18a—were tested in the presence of several common buffer additives (Table 3).

[7] = system: immobilized RPtag(large) column; assay: Native elution from immobilized RPtag(large) column (3 M NaCl binding, 3 M imidazole elution); parameters: species or system Thermoanaerobacter tengcongensis; conditions: bound in 100 mM Tris pH 8.0, 3 M NaCl, 0.005% Tween20
Text: Because of the observed stabilizing character of NaCl and destabilizing character of imidazole on Nd8Cd4 binding, these reagents, among others, were incorporated into a novel buffering system for use with the disclosed proteins, peptides, systems, and methods. In particular, the effect of this novel buffer on binding of RPtag (small) Nd8Cd4 to an immobilized RPtag(large) column was studied. These experiments included eluting both (1) rhodamine labeled peptide and (2) N-terminally RPtag(small) Nd8Cd4 tagged with tagRFP from a column under native conditions. Generally, native conditions is taken to mean at or near biological conditions under which many proteins are folded, e.g. pH 4-9 at moderate temperature (4° C.-30° C.) in the absence of denaturants (e.g. guanidine hydrochloride, urea, SDS). This is in contrast to denaturing conditions, which generally rely on extreme pH (e.g. ≤2) denaturants, or high temperature to unfold proteins.
Briefly, columns, as described above, were first equilibrated with 10 mL 100 mM Tris pH 8.0, 3 M NaCl, 0.005% Tween20. Next, 1 mL of 10 uM rhodamine-tagged Nd8Cd4 or tagRFP containing an N-terminal RPtag (small) Nd8Cd4 tag was applied in the same buffer. The column was then washed with 10 mL of the same buffer. Finally, bound target molecules were eluted with 10 mL of 100 mM Tris pH 8.0, 3 M imidazole, 0.005% Tween20.

[8] = target: RPtag(small) (Nd2Cd4); assay: Fluorescence anisotropy Kd of RPtag(large) variants for control RPtag(small) peptide Nd2Cd4; format: binding, Thermoanaerobacter tengcongensis; conditions: 2 nM rhodamine labeled Nd2Cd4
Experimental: An initial Kd was measured between RPtag(large) and the PDGF-β N-terminal peptide (FIG. 16). […] Next, competition experiments were performed using the mutant RPtag(small) peptide Nd2,P5A,E18A.
Kds were measured by incubating increasing concentrations of unlabeled RPtag large mutant with either 20 nM rhodamine labeled PDGF-β n-terminal peptide or 2 nM rhodamine labeled Nd2Cd4 variant of RPtag small, as it has the same number of amino acids as the PDGF-β peptide but contains the native binding sequence. After the incubation, fluorescence anisotropy was measured, and the resultant curves were fit with the equation f=y0+(ymax−y0)*(Ptot+x+Kd−sqrt((Ptot+x+Kd)^2−4*Ptot*x))/(2*Ptot), where y0 is the baseline anisotropy, ymax is the maximum anisotropy, Ptot is the fixed concentration of labeled peptide used, x is the variable concentration of protein used, and Kd is the measured Kd. Data are presented here as Ka=1/Kd. Log transformed Ka's were then compared by one-way ANOVA relative to wt control with Holm-Sidak post hoc correction. ***p<0.001, **p<0.01, *p<0.05. data are mean±SEM (n=3-4). Buffer was 50 mM Tris pH 8.0, 0.005% Tween20. For the sake of comparison, the double mutant h122l,a253a is shown on the same axes, but was not included in the statistical analysis as the experiment was done after the initial results identified the two single mutants.

[9] = system: rhodamine labeled RPtag (small); assay: Sequential boiling/recovery trials, fraction binding of RPtag (large); parameters: species or system Thermoanaerobacter tengcongensis
Experimental: The ability of the disclosed proteins and peptides to function after being subjected to thermal stress was also tested. Here again the RPtag (large) and anti-6×His antibody were selected for analysis. Briefly, the RPtag(large) or the anti-6×His antibody was subjected to sequential rounds of boiling and recovery. Specifically, the proteins were subjected to sequential rounds of: 5 min boiling in buffer, followed by recovery for 1 min on ice. After each round of boiling/recovery, the proteins were assayed for binding to their corresponding epitopes and the results plotted.
RPtag (large) and an the anti-His tag antibody (4E3D10H2/E3 purchased from ThermoFisher Scientific) were placed in a solution at about 0.1-1 μM [final] in a buffer of 50 mM Tris pH 8.0, 0.005% Tween20. The protein solutions were repeatedly heated for 5 min at 95° C. and then recovered on ice for 1 min. After each round of heating/cooling, an aliquot was taken and diluted to 100 nM, and incubated with 100 nM either rhodamine labeled RPtag (small) or rhodamine labeled 6x-His peptide (sequence: Rhodamine-GHHHHHH), and the fluorescence anisotropy measured. Fraction binding was calculated via the equation F=(r−rmin)/(r0−rmin) where F is the fraction binding, r is the measured anisotropy, rmin is the anisotropy in the absence of binding protein, and r0 is the anisotropy before any boiling trials.

Molecule: GEKIPNFIPAELKLITKENVQ [native]
- Kd [1]: 0.2 nM and ~0.2 nM
- slope of initial velocity line using S (total) ([2]; 1000 nM RPtag(large)): 0.035 min⁻¹
- rate constant for conversion of S to S* from linear fit of initial rate plot, S (corrected) ([2]; 1000 nM RPtag(large), 0.6 to 10 nM RPtag (small)): 0.091 min⁻¹
- dissociation rate constant from first order rate law fit ([2]; 0.1 mM unlabeled native RPtag small competitor, n=15): 0.012 ± 0.002 min⁻¹
- koff ([2]; LS dissociation, unlabeled competitor peptide, listed as native RPtag (small)): 0.000152 s⁻¹
- kr ([2]; S* to S reverse rate constant, calculated from Keq and kf, listed as native RPtag (small)): 0.056 min⁻¹
- kon (M^−1 min^−1 ) (×10^7) ([2]; S*-LS transition, calculated from measured koff and Kd): 4.3 ± 0.1 ×10^7 M^−1 min^−1
- selectivity over non-specific (BSA) interaction [3]: > 50,000 fold
- binding to BSA ([4]; listed as RPtag (small)): no detectable binding
- binding to BSA ([4]; listed as native RPtag (small)): no interaction was detected
- pH of relative maximum affinity [5]: ~8 pH
- Kd ([6]; Gdn-HCl (6M)): > 10000 nM
- Kd ([6]; SDS (2%)): > 10000 nM
- Kd ([6]; imidazole (3M)): > 10000 nM
- Kd ([6]; urea (8M)): > 10000 nM
- elution behaviour with 100 mM Tris pH 8.0, 3 M imidazole [7]: diffuse band

B1: RPtag (large): RB protein fragment a.a. 1-257 from Thermoanaerobacter tengcongensis; SEQ ID NO: 3 with tags and Cys (protein)
chain: MGSSCHHHHHHSQDPNSSSMKEGKTIGLVISTLNNPFFVTLKNGAEEKAKELGYKIIVEDSQNDSSKELSNVEDLIQQKVDVLLINPVDSDAVVTAIKEANSKNIPVITIDRSANGGDVVSHIASDNVKGGEMAAEFIAKALKGKGNVVELEGIPGASAARDRGKGFDEAIAKYPDIKIVAKQAADFDRSKGLSVMENILQAQPKIDAVFAQNDEMALGAIKAIEAANRQGIIVVGFDGTEDALKAIKEGKMAATIAQQPALMGSLGVEMADKYLK
modifications: tags and added Cys
- Kd [8]: 0.41 nM
- stability relative to commercially available products [9]: at least 10 fold
